Data reported in ChEMBL document CHEMBL1201862, “PubChem BioAssay data set” (2004).
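Protocol summary: plate cells (96-well), add compound at 5 concentrations, incubate 48 h, interpolate endpoints linearly. GI50 = concentration required for 50% inhibition of growth.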 Calls of active or inactive are those of the source. Cut-off read from the data, not from the text of the source: active = GI50 up to about 1.1 µM and inactive = higher.

Tests used:
Assay in all cases: growth of human tumour cells (NCI), 48 h
[1] = system: A549
[2] = system: HOP-92
[3] = system: 786-0
[4] = system: NCI-H226
[5] = system: LOX IMVI
[6] = system: SW-620
[7] = system: HL-60
[8] = system: UO-31
[9] = system: UACC-62
[10] = system: RPMI-8226
[11] = system: OVCAR-3
[12] = system: K562
[13] = system: SF-268

Measured: GI50

COc1cc(CC2c3cc(OC)c(OC)cc3CCN2C)c(Oc2cc3c(cc2OC)-c2c(OC)c(OC)c(OC)c4c2C(C3)N(C)CC4)cc1OC (configuration not stated)
inactive: [1] 15.9 µM | [2] 6.53 µM | [3] 8.39 µM | [4] 17.2 µM | [5] 6.73 µM | [6] 15.6 µM | [7] 9.29 µM | [8] 7.93 µM | [9] 15.2 µM | [10] 14 µM | [11] 12.3 µM | [12] 2.63 µM | [13] 15 µM

O=C(c1cccs1)N(C(=S)N1CCN(c2ccccc2)CC1)C1CCCCC1
inactive: [1] > 100 µM | [2] > 100 µM | [3] > 100 µM | [5] > 100 µM | [6] > 100 µM | [7] 22.1 µM | [8] > 100 µM | [9] > 100 µM | [10] > 100 µM | [11] > 100 µM | [12] > 100 µM | [13] > 100 µM

O=C(O)CN1CCSc2ccccc2CN(CC(=O)O)CCSc2ccccc2C1
inactive: [1] > 100 µM | [2] > 100 µM | [3] > 100 µM | [5] > 100 µM | [6] > 100 µM | [7] > 100 µM | [8] > 100 µM | [9] > 100 µM | [10] > 100 µM | [11] > 100 µM | [12] > 100 µM | [13] > 100 µM

CC(=O)O[C@H]1CC[C@@]2(C)C(=CC[C@H]3C4=CC=C(C(C)=O)[C@@]4(C)CCC32)C1 (some centres not stated)
inactive: [1] 36.4 µM | [2] 27.6 µM | [3] 35.5 µM | [4] 15 µM | [5] 15.5 µM | [6] 20.9 µM | [7] 18 µM | [8] 43.7 µM | [9] 18.8 µM | [10] 15.3 µM | [11] 35.9 µM | [13] 32.4 µM

COc1ccc(-c2cc(O)c3cc4c(cc3n2)OCO4)c(OC)c1OC
inactive: [1] > 100 µM | [2] 70.3 µM | [3] > 100 µM | [4] > 100 µM | [5] > 100 µM | [6] 84.9 µM | [7] 37.3 µM | [8] > 100 µM | [9] 47.6 µM | [10] 82.8 µM | [11] > 100 µM | [12] 43.9 µM | [13] > 100 µM

COc1ccc2c(c1O)C(=O)C(CCC(=O)O)CC2 (configuration not stated)
inactive: [1] > 100 µM | [2] > 100 µM | [3] > 100 µM | [5] > 100 µM | [6] > 100 µM | [7] > 100 µM | [9] > 100 µM | [10] > 100 µM | [11] > 100 µM

CC(=O)N(C)C=C1C(=O)N(C)C(=O)N(C)C1=O
inactive: [1] > 100 µM | [2] > 100 µM | [3] > 100 µM | [4] > 100 µM | [5] > 100 µM | [6] > 100 µM | [7] > 100 µM | [8] > 100 µM | [9] > 100 µM | [10] > 100 µM | [11] > 100 µM | [12] > 100 µM

CC(C)CCCC(C)[C@H]1CCC2[C@@H]3CCC4Nc5nocc5C[C@]4(C)C3CC[C@@]21C (some centres not stated)
inactive: [1] 21.2 µM | [3] 11.4 µM | [4] 19.9 µM | [5] 2.23 µM | [6] 15.1 µM | [7] 9.02 µM | [8] 14.6 µM | [9] 22.5 µM | [10] 20.3 µM | [11] 5.61 µM | [12] 15.8 µM | [13] 17.2 µM

NC(=O)CCCC(NCc1c2ccccc2nc2ccccc12)C(=O)O (configuration not stated)
inactive: [1] 56.1 µM | [2] 27.5 µM | [3] 42.7 µM | [4] > 100 µM | [5] 30.4 µM | [6] 50.9 µM | [7] 20.5 µM | [10] 22.8 µM | [11] 37.9 µM | [12] 26.6 µM | [13] 41.6 µM

O=C1CC2(CCC3=C(O2)c2ccccc2NC(=O)C3)C(=O)c2ccccc2N1 (configuration not stated)
inactive: [1] > 100 µM | [3] > 100 µM | [4] > 100 µM | [5] > 100 µM | [6] > 100 µM | [7] > 100 µM | [8] 41.9 µM | [9] > 100 µM | [10] 87.1 µM | [11] > 100 µM | [12] 48.1 µM | [13] > 100 µM

NNC(=S)N/N=C(\CCCC(=O)NCCc1ccccc1)CC(=O)c1ccccc1
inactive: [1] > 100 µM | [2] > 100 µM | [3] > 100 µM | [6] > 100 µM | [7] > 100 µM | [8] > 100 µM | [9] > 100 µM | [11] > 100 µM | [13] > 100 µM

CCCc1ccc(NCc2cc(OC)c(OC)c(OC)c2)cc1
inactive: [1] 41.8 µM | [2] 22.9 µM | [3] 22.4 µM | [5] 15.7 µM | [8] 24.7 µM | [9] 26.9 µM | [10] 12.7 µM | [12] 12.1 µM | [13] 27.7 µM

COc1ccc(OC)c(CC(C)N)c1 (configuration not stated)
inactive: [1] > 100 µM | [3] > 100 µM | [4] > 100 µM | [5] > 100 µM | [6] > 100 µM | [8] > 100 µM | [9] > 100 µM | [10] > 100 µM | [11] > 100 µM | [12] > 100 µM | [13] > 100 µM

O=P(Nc1ccccc1)(Oc1ccccc1)N(CCCl)CCCl (configuration not stated)
inactive: [1] 94 µM | [2] 26.4 µM | [4] > 100 µM | [6] > 100 µM | [7] 14.8 µM | [8] 12.4 µM | [9] 89.1 µM | [11] > 100 µM | [12] > 100 µM | [13] > 100 µM

O=C1c2ccccc2C(=O)c2c1ccc1c2N=C(c2ccc(Br)cc2)CC(c2cccc3ccccc23)N1 (configuration not stated)
inactive: [1] > 100 µM | [3] > 100 µM | [4] > 100 µM | [5] > 100 µM | [6] > 100 µM | [7] > 100 µM | [8] > 100 µM | [9] > 100 µM | [10] 83.6 µM | [11] > 100 µM | [12] > 100 µM | [13] > 100 µM

NC(=O)c1ncn2c1NCC1OC2C(O)C1O (configuration not stated)
inactive: [1] > 100 µM | [2] > 100 µM | [3] > 100 µM | [4] > 100 µM | [5] > 100 µM | [6] > 100 µM | [7] > 100 µM | [8] > 100 µM | [9] > 100 µM | [11] > 100 µM | [12] > 100 µM | [13] > 100 µM

COc1ccc2oc(-c3ccncc3)cc(=O)c2c1
inactive: [2] 37.5 µM | [3] > 100 µM | [4] > 100 µM | [5] 57.5 µM | [7] > 100 µM | [8] > 100 µM | [9] 65.2 µM | [10] > 100 µM | [11] > 100 µM | [12] > 100 µM | [13] 67.6 µM
